{"source": "patent US8101656B2", "about": "“Use of 2,2-dimethyl-3-(2,4-dichlorophenyl)-2-oxo-1-oxaspiro[4,5]dec-3-en-4-yl butanoate for controlling acarides” (Bayer CropScience AG, priority 2003, dated 2012)", "assay_type_in_all_cases": "in vivo", "key": {"[1]": {"system": "Tetranychus urticae", "experiment": "Example B: field spray test against spider mites on hops", "conditions": "2200 l/ha, sprayed once", "protocol": "Pest: Tetranycus Urticae Crop: Hops The compound of the formula (I) (240SC) was tested at a concentration of 0.0144% a.i. in comparison with the standard Amitraz (200 EC) at 0.05% a.i. The mixture was sprayed once. The spray mixture (2200 l/ha) was applied using a trailed machine operated by a tractor. The plot size was 60 plants, and 2 replications were carried out per test variant. The activity against spider mites was determined 5, 12, 19 and 34 days after the treatment by counting the live animals/leaf (60 leaves/plot) and calculating the efficacy using Abbott's formula."}, "[2]": {"system": "Tetranychus urticae", "experiment": "Example A: field spray test against spider mites on hops", "conditions": "2000 l/ha", "protocol": "Pest: Tetranychus Urticae Crop: Hops The compound of the formula (I) (240SC) was tested at a concentration of 0.0048% a.i. in comparison with cis-cyhalothrin (050EC) at 0.005% a.i. The compound of the formula (I) was used at an early stage of the infestation of the pest, while cis-cyhalothrin was applied when the infestation had progressed to a high level. The spray mixture (2000 l/ha) was applied using a knapsack sprayer operated with compressed air. The plot size was 6 plants, the number of replications per test variant was 2. The activity against spider mites was determined 4, 14 and 21 days (compound of the formula (I)) and 4, 11 and 18 days (cis-cyhalothrin) after the treatment by counting the live animals/leaf (10 leaves/plot) and calculating the efficacy using Abbott's formula."}, "[3]": {"system": "Eotetranychus hicoriae", "experiment": "Example D: spray test against pecan leaf scorch mite on pecan nut tree", "conditions": "0.313 pounds a.i. per acre", "protocol": "Pest: Eotetranychus Hicoriae\nThe compound of the formula (I) (240 SC) was tested at an application rate of 0.313 lb a.i. per acre in comparison with ACRAMIT (Bifenazate, 50 WP) at 0.50 pound of a.i. per acre.\nThe spray mixture (105 gallons per acre) was applied by means of a motor-operated hand-held sprayer.\nThe experiment was carried out with one tree per plot and four replication experiments.\nThe efficacy against the pecan leaf scorch mite was determined by counting the number of live mites on five leaves per tree 6 and 13 days after the application and subsequently calculated by means of the Abbott formula."}, "[4]": {"system": "Tetranychus urticae", "experiment": "Example C: spray test against spider mites (eggs and nymphs) on black walnut tree", "conditions": "0.126 pounds a.i. per acre", "protocol": "Pest: Tetranychus Urticae\nThe compound of the formula (I) (240 SC) was tested at a concentration of 2.02 ounces a.i. per 100 gallons (=0.126 pounds a.i. per acre) in comparison with PYRAMAT (Pyridaben, 75 WP) at an application rate of 0.125 pound a.i. per acre.\nThe spray mixture (100 gallons per acre) was applied by means of a motor-operated hand-held sprayer.\nThe test was carried out with one tree per plot and three replication experiments.\nThe efficacy against spider mites was calculated by counting the live eggs and nymphs on eight leaves per tree before and one, two and six weeks after the application and subsequently calculated using the formula of Henderson & Tilton."}}, "data": [{"smiles": "Cc1ccc(/N=C/N(C)/C=N/c2ccc(C)cc2C)c(C)c1", "note": "[Amitraz (200 EC), Amitraz, reference compound]", "values": [{"measurement": "Efficacy in % Abbott", "setting": "[1]; 0.05% a.i., 5 days after treatment", "value": 80.1, "unit": "%"}, {"measurement": "Efficacy in % Abbott", "setting": "[1]; 0.05% a.i., 12 days after treatment", "value": 96.3, "unit": "%"}, {"measurement": "Efficacy in % Abbott", "setting": "[1]; 0.05% a.i., 19 days after treatment", "value": 92.2, "unit": "%"}]}, {"smiles": "CC1(C)C(/C=C(\\Cl)C(F)(F)F)C1C(=O)OC(C#N)c1cccc(Oc2ccccc2)c1", "note": "(stereo not drawn) [Cis-cyhalothrin (050 EC), cis-cyhalothrin, reference compound]", "values": [{"measurement": "Efficacy in % Abbott", "setting": "[2]; 0.005% a.i., applied at high level of infestation, 4 days after treatment", "value": 59, "unit": "%"}, {"measurement": "Efficacy in % Abbott", "setting": "[2]; 0.005% a.i., applied at high level of infestation, 11 days after treatment", "value": 57, "unit": "%"}, {"measurement": "Efficacy in % Abbott", "setting": "[2]; 0.005% a.i., applied at high level of infestation, 18 days after treatment", "value": 0, "unit": "%"}]}, {"smiles": "CCC(C)(C)C(=O)OC1=C(c2ccc(Cl)cc2Cl)C(=O)OC12CCCCC2", "note": "[Compound of the formula (I) (240 SC), 2,2-Dimethyl-3-(2,4-dichlorophenyl)-2-oxo-1-oxaspiro[4.5]dec-3-en-yl butanoate]", "values": [{"measurement": "Efficacy in Abbot %", "setting": "[3]; 6 DAA (days after application)", "value": 100, "unit": "%"}, {"measurement": "Efficacy in Abbot %", "setting": "[3]; 13 DAA", "value": 80, "unit": "%"}, {"measurement": "Efficacy in % Abbott", "setting": "[1]; 0.0144% a.i., 5 days after treatment", "value": 89.7, "unit": "%"}, {"measurement": "Efficacy in % Abbott", "setting": "[1]; 0.0144% a.i., 12 days after treatment", "value": 98.1, "unit": "%"}, {"measurement": "Efficacy in % Abbott", "setting": "[1]; 0.0144% a.i., 19 days after treatment", "value": 99.6, "unit": "%"}, {"measurement": "Efficacy in Henderson&Tilton % against NYMPHS", "setting": "[4]; 1 WAA", "value": 100, "unit": "%"}, {"measurement": "Efficacy in Henderson&Tilton % against EGGS", "setting": "[4]; 1 WAA (one week after application)", "value": 100, "unit": "%"}, {"measurement": "Efficacy in Henderson&Tilton % against EGGS", "setting": "[4]; 2 WAA", "value": 100, "unit": "%"}, {"measurement": "Efficacy in Henderson&Tilton % against NYMPHS", "setting": "[4]; 2 WAA", "value": 100, "unit": "%"}, {"measurement": "Efficacy in Henderson&Tilton % against EGGS", "setting": "[4]; 6 WAA", "value": 64, "unit": "%"}, {"measurement": "Efficacy in Henderson&Tilton % against NYMPHS", "setting": "[4]; 6 WAA", "value": 83, "unit": "%"}, {"measurement": "Efficacy in % Abbott", "setting": "[2]; 0.0048% a.i., applied at early stage of infestation, 4 days after treatment", "value": 90, "unit": "%"}, {"measurement": "Efficacy in % Abbott", "setting": "[2]; 0.0048% a.i., applied at early stage of infestation, 14 days after treatment", "value": 94, "unit": "%"}, {"measurement": "Efficacy in % Abbott", "setting": "[2]; 0.0048% a.i., applied at early stage of infestation, 21 days after treatment", "value": 93, "unit": "%"}]}]}
